“And” between values parts separate entries of the source, which are not always exact repeats. Equal entries are not always repeated.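 Protocol summary: plate cells (96-well), add compound at 5 concentrations, incubate 48 h, interpolate endpoints linearly. Here, GI50 denotes the concentration required for 50% inhibition of growth. TGI marks complete inhibition of growth.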
Legend:
Assay in all cases: NCI-60 cell line screen, 48 h
UO-31 renal = test system: UO-31 renal
UACC-62 melanoma = test system: UACC-62 melanoma
UACC-257 melanoma = test system: UACC-257 melanoma
A498 renal = test system: A498 renal
NCI-H460 lung = test system: NCI-H460 lung
M14 melanoma = test system: M14 melanoma
SK-MEL-5 melanoma = test system: SK-MEL-5 melanoma
SK-OV-3 ovarian = test system: SK-OV-3 ovarian
MDA-MB-435 = test system: MDA-MB-435
PC-3 prostate = test system: PC-3 prostate

Compound	TGI (UO-31 renal)	TGI (UACC-62 melanoma)	TGI (UACC-257 melanoma)	TGI (A498 renal) [µM]	TGI (NCI-H460 lung)	TGI (M14 melanoma)	TGI (SK-MEL-5 melanoma)	TGI (SK-OV-3 ovarian)	GI50 (MDA-MB-435) [µM]	TGI (MDA-MB-435) [µM]	GI50 (UO-31 renal) [µM]	GI50 (UACC-62 melanoma) [µM]	GI50 (UACC-257 melanoma) [µM]	GI50 (A498 renal) [µM]	GI50 (M14 melanoma) [µM]	GI50 (SK-MEL-5 melanoma) [µM]	GI50 (PC-3 prostate) [µM]	TGI (PC-3 prostate) [µM]	GI50 (SK-OV-3 ovarian) [µM]	GI50 (NCI-H460 lung) [µM]
CCCCOC(=O)NC(=O)c1cn(CCSCCOC(=O)NCCCCCCNC(=O)OCCSCCn2cc(C(=O)NC(=O)OCCCC)c(=O)[nH]c2=O)c(=O)[nH]c1=O	> 100 µM	> 100 µM	> 100 µM	64.7	> 100 µM	> 100 µM	> 100 µM	> 100 µM	–	–	–	–	–	–	–	–	–	–	–	–
Fc1ccc(C2SCc3nc4ccccc4n32)cc1 (stereo not drawn)	70.1 µM	–	–	–	> 100 µM	> 100 µM	38 µM	> 100 µM	–	–	–	–	–	–	–	–	–	–	–	–
CCN(c1ccc(Br)cc1)c1c(Br)c(=O)nc2ccccn12	> 100 µM	> 100 µM	–	> 100	> 100 µM	> 100 µM	> 100 µM	> 100 µM	–	–	–	–	–	–	–	–	–	–	–	–
O=C(OCC1CO1)c1cccs1 (stereo not drawn)	> 100 µM	> 100 µM	> 100 µM	–	> 100 µM	> 100 µM	> 100 µM	> 100 µM	–	–	–	–	–	–	–	–	–	–	–	–
COc1ccc(-c2ccc(-c3ccc(-c4ccc(C(=N)N)cc4)s3)s2)cc1OC	32.4 µM	48 µM	54.3 µM	27.8	–	11.3 µM	60.2 µM	37.3 µM	5.32	20.2	14.4	18.4	22	11	3.16	14.7	2.78	9.39	14.5	–
C1OC1CO[C@@H]1CO[C@H]2[C@@H]1OC[C@H]2OCC1CO1 (stereo partly drawn)	> 100 µM	> 100 µM	> 100 µM	> 100	> 100 µM	> 100 µM	> 100 µM	> 100 µM	–	–	–	–	–	–	–	–	–	–	–	–
CN1CC(C(=O)C2C(=O)c3ccccc3C2=O)C(=O)C(=O)C(C(=O)C2C(=O)c3ccccc3C2=O)C1 (stereo not drawn)	> 100 µM	> 100 µM	> 100 µM	> 100	> 100 µM	> 10 µM	–	> 100 µM	–	–	–	–	–	–	–	–	–	–	–	–
CO[C@@H]1/C=C(C)/C=C/[C@@H](C)/C=C(\C)C(=O)OC(/C(C)=C/C=C(\C)CNC(=O)[C@H](CO)NC=O)[C@@H](C)/C=C/C=C/[C@H](OC)CC/C=C(C)/C=C/C1 (stereo partly drawn)	0.425 µM	< 0.005 µM	0.0365 µM	–	5.81 µM	< 0.005 µM	< 0.005 µM	9.48 µM	< 0.005	< 0.005	< 0.005	< 0.005	0.0238	–	< 0.005	< 0.005	< 0.005	6.91	0.332	< 0.005
CCN(CCCl)CCCNc1c2ccccc2nc2ccc(OC)cc12	2060 µM	–	–	356	–	–	–	–	–	–	–	255	457	–	213	626	–	–	446	129
O=C(O)c1cc2cc(OCc3ccccc3)c(OCc3ccccc3)cc2[nH]1	27.6 µM	34.5 µM	62.9 µM	–	33.4 µM	60.8 µM	47.3 µM	> 100 µM	19.2	47.9	13.8	17.5	22.2	–	24.2	20.1	23	68.5	29.5	17.8
CC(=O)CCCCO	> 100 µM	> 100 µM	> 100 µM	> 100	> 100 µM	> 100 µM	> 100 µM	> 100 µM	–	–	–	–	–	–	–	–	–	–	–	–
C=C1C(=O)O[C@H]2[C@H]1CC/C(COC(=O)CSCC(=O)OC/C1=C/CC[C@@]3(C)O[C@H]3[C@H]3OC(=O)C(=C)[C@@H]3CC1)=C\CC[C@@]1(C)O[C@@H]21	2.83 µM	3.95 µM	4.3 µM	–	4.91 µM	3.87 µM	3.77 µM	29.1 µM	1.69	3.92	1.44	1.69	1.76	–	1.63	1.73	2.21	6.92	15.6	2.16
O=C(Nc1ccccc1O)c1ccc(Oc2cccc(C(=O)Nc3ccccc3O)c2)cc1	6.39 µM	5.1 µM	8.21 µM	5.06	11 µM	–	2.85 µM	17.2 µM	0.294	10.2	1.36	1.22	1.69	0.0225	–	1.13	1.84	10.4	4.42	1.21
COc1ccc(C(=O)c2cc3c(OC)c(OC)c(OC)cc3[nH]2)cc1	> 100 µM	> 100 µM	> 100 µM	47.7	> 100 µM	> 100 µM	5.62 µM	> 100 µM	–	–	6.19	3.39	> 100	6.45	3.69	2.2	> 100	> 100	> 100	3.26
NC(N)=NNC(=O)CCCCCCCC(=O)NN=C(N)N	> 100 µM	> 100 µM	> 100 µM	> 100	> 100 µM	> 100 µM	> 100 µM	> 100 µM	–	–	–	–	–	–	–	–	–	–	–	–
S=C1Nc2ccc(Cl)cc2C2(c3ccccc3)N3CCN=C3NN12 (stereo not drawn)	> 100 µM	> 100 µM	> 100 µM	–	74.7 µM	> 100 µM	45.4 µM	> 100 µM	43.2	> 100	37.5	29.3	37	–	39.9	28.1	39.3	> 100	> 100	23.7
CC(C)(C)C(=O)ON1N=NC2C3CC(OCc4ccccc4)(OCc4ccccc4)C(O3)C21 (stereo not drawn)	49.7 µM	44.9 µM	29.2 µM	> 100	60.4 µM	85.7 µM	31.9 µM	> 100 µM	–	–	–	–	–	–	–	–	–	–	–	–
CCN1c2ccccc2C(Cl)(c2ccc(N(C)C)cc2)c2ccccc21	5.27 µM	42.1 µM	–	> 100	23.4 µM	20.2 µM	15 µM	18.2 µM	3.34	14	1.91	11.6	–	59.6	5.97	3.76	2.18	9.88	4.97	7.77
O=C(C(=O)N1CC2C=CC1CC2)c1c[nH]c2ccccc12 (stereo not drawn)	> 100 µM	> 100 µM	> 100 µM	> 100	> 100 µM	> 100 µM	> 100 µM	> 100 µM	–	–	–	–	–	–	–	–	–	–	–	–

Compound	TGI (UO-31 renal)	TGI (UACC-62 melanoma)	TGI (UACC-257 melanoma)	TGI (A498 renal) [µM]	TGI (NCI-H460 lung)	TGI (M14 melanoma)	TGI (SK-MEL-5 melanoma)	TGI (SK-OV-3 ovarian)	GI50 (MDA-MB-435) [µM]	TGI (MDA-MB-435) [µM]	GI50 (UO-31 renal) [µM]	GI50 (UACC-62 melanoma) [µM]	GI50 (UACC-257 melanoma) [µM]	GI50 (A498 renal) [µM]	GI50 (M14 melanoma) [µM]	GI50 (SK-MEL-5 melanoma) [µM]	GI50 (PC-3 prostate) [µM]	TGI (PC-3 prostate) [µM]	GI50 (SK-OV-3 ovarian) [µM]	GI50 (NCI-H460 lung) [µM]
CC(=O)OC1(C)C(=O)OC1(C)C(C)=O (stereo not drawn)	> 100 µM	> 100 µM	> 100 µM	> 100	–	> 100 µM	> 100 µM	> 100 µM	–	–	–	–	–	–	–	–	–	–	–	–
O=C(Cc1cccc(OC(F)(F)F)c1)Nc1ccc(CCCCc2nnc(NC(=O)Cc3ccccn3)s2)nn1	28.9 µM	> 100 µM	> 100 µM	–	48.3 µM	> 100 µM	> 100 µM	25.1 µM	30.4	> 100	2.85	19.9	29.3	–	36.3	16.1	18.3	> 100	11.6	13.9
NC(=O)C(c1ccccc1)N1CCOCC1 (stereo not drawn)	> 100 µM	> 100 µM	> 100 µM	> 100	> 100 µM	> 100 µM	> 100 µM	> 100 µM	–	–	–	–	–	–	–	–	–	–	–	–
CC(=O)OCC1OC(OC2CC3C(C)(C)C(O)CC[C@]3(C)C3CCC45CC4(CC[C@H]5C(C)CC(O)C4OC4(C)C)[C@]23C)C(O)C(O)C1O (stereo partly drawn)	15.4 µM and 31.6 µM	14.2 µM and 17.3 µM	16.1 µM and 22.6 µM	51.8	16.8 µM and 20.4 µM	16 µM and 17.2 µM	10.2 µM and 17.6 µM	15 µM and 29.2 µM	–	–	17.7	4.99	–	–	5.37	5.65	–	–	15.7	5.08
O=C(CC(=O)N1N=C(N2c3ccccc3Sc3ccccc32)CC1c1ccccc1)Nc1ccc(Cl)cc1 (stereo not drawn)	> 100 µM	> 100 µM	> 100 µM	> 100	> 100 µM	> 100 µM	> 100 µM	> 100 µM	–	–	–	–	–	–	–	–	–	–	–	–
COC(=O)[C@]12CC[C@@H](C)[C@H](C)[C@@H]1C1=CC[C@@H]3[C@@]4(C)C=C(O)C(=O)[C@@]5(C)COC(=C54)C[C@@]3(C)[C@]1(C)CC2	24.4 µM	–	18.8 µM	32.5	28.9 µM	27.3 µM	15.3 µM	32.5 µM	6.12	21.5	10.1	–	4.32	15.2	11.7	4.25	4.77	18.5	14.6	12.4
COc1cc2c(cc1O)CC13CCC(=O)N1CCc1cc(OC)c(O)c-2c13 (stereo not drawn)	> 68.1 µM	> 68.1 µM	> 68.1 µM	> 68.1	> 68.1 µM	> 68.1 µM	> 68.1 µM	–	–	–	–	–	–	–	–	–	–	–	–	–
COc1ccc(/C=C\c2cc(OC)c(OC)c(OC)c2)cc1OC(=O)CCC(=O)O	> 100 µM	–	–	–	31.5 µM	–	–	> 100 µM	–	< 0.0001	< 0.0001	–	< 0.0001	< 0.0001	–	< 0.0001	–	> 100	0.0442	–
CC#CC1/C(=C\C(=O)OC)CCCC1O (stereo not drawn)	> 100 µM	> 100 µM	> 100 µM	> 100	> 100 µM	> 100 µM	> 100 µM	> 100 µM	–	–	–	–	–	–	–	–	–	–	–	–
Cc1cc(NS(=O)(=O)c2ccc(NC(=O)c3cccc4c(Nc5ccc(S(=O)(=O)N=C(N)N)cc5)c5ccccc5nc34)cc2)no1	> 100 µM	> 100 µM	> 100 µM	> 100	> 100 µM	> 100 µM	> 100 µM	> 100 µM	–	–	–	–	–	–	–	–	–	–	–	–
CCOC(=O)C1SC(=Nc2ccc(Cl)c(Cl)c2)N=C1C (stereo not drawn)	> 100 µM	> 100 µM	> 100 µM	84.3	> 100 µM	> 100 µM	–	> 100 µM	–	–	–	–	–	–	–	–	–	–	–	–
Cc1c2c[n+](C(C)C)ccc2c(C)c2c1[nH]c1ccccc12	> 100 µM	15 µM	–	64	10.9 µM	17 µM	3.89 µM	39.8 µM	3.2	13.2	20.6	2.7	–	1.94	3.77	1.5	2.59	40.6	3.19	2.44
CC1=CCC23C(C1)OC(Br)(C=CC2(C)O)C3(C)C (stereo not drawn)	–	> 100 µM	> 100 µM	> 100	> 100 µM	–	> 100 µM	–	–	–	–	–	–	–	–	–	–	–	–	–
Nc1c(C(=O)Nc2ccccc2)[n+]([O-])c2ccccc2[n+]1[O-]	42 µM	22.6 µM	59.4 µM	31	35.7 µM	32.8 µM	29.1 µM	> 100 µM	–	–	–	–	–	–	–	–	–	–	–	–
c1ccc2c(c1)[nH]c1cnc3c4cccnc4[nH]c3c12	33 µM	31.1 µM	52.4 µM	> 100	50.1 µM	30.1 µM	39.9 µM	–	–	–	–	–	–	–	–	–	–	–	–	–
Cc1ccc(-c2cc(C3=CC(=O)C=CC3=O)n(-c3ccc(S(N)(=O)=O)cc3)n2)cc1	> 100 µM	> 100 µM	> 100 µM	–	> 100 µM	80.9 µM	> 100 µM	–	59.4	> 100	> 100	39.5	> 100	–	31.8	83.1	36.5	> 100	–	68.2
C=CCC(N[C@H](CO)c1ccccc1)c1cn(C(=O)OCC)c2ccccc12 (stereo partly drawn)	32.5 µM	30.6 µM	18 µM	–	> 100 µM	28.2 µM	32.8 µM	> 100 µM	18	33.4	16.1	16.4	–	–	14.3	17.5	23.2	69.3	31.3	37.3
Cc1cc(=O)oc2cc(OCc3c(F)cccc3Cl)ccc12	> 100 µM	35 µM	> 100 µM	> 100	–	> 100 µM	> 100 µM	–	–	3.5	–	–	–	–	–	–	–	> 100	–	–

Reference: PubChem BioAssay (NCI)
